Assays:
IRAK4 = target: T1, IRAK4 (Homo sapiens, UniProt Q9NWZ3); assay: IRAK4 enzymatic assay (ADP-Glo luminescence); assay type: biochemical; conditions: human recombinant His-TEV-IRAK4 (1-460), STK1-biotin peptide substrate
T1 construct: His-TEV-IRAK4 (1-460); His (N); TEV cleavage site (N)
T1 sequence (Q9NWZ3 1-460): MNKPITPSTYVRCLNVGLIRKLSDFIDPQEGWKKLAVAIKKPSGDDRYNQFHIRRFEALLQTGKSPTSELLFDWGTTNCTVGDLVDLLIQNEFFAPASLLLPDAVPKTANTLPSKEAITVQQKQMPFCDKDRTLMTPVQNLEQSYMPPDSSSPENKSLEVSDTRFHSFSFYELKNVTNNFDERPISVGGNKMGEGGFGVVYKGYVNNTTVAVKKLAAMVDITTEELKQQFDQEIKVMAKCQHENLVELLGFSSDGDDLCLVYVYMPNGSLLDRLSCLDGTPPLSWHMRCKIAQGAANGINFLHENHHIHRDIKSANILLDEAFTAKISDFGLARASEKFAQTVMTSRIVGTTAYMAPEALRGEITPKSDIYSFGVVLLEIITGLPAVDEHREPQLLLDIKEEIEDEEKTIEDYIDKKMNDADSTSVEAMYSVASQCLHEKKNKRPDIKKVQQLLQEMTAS
How it was run: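 His-TEV-IRAK4(1-460) at […] was preincubated with compound (10 μM to 0.5 nM) for 15 min at RT in 50 mM Hepes pH 7.0 with MgCl2, MnCl2, DTT, BSA and Triton. Reactions with ATP ([…]) and STK1-biotin peptide (300 nM) ran 2 h at RT. ADP formed was read by ADP-Glo luminescence.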

IRAK1 = target: T2, IRAK1 (Homo sapiens, UniProt P51617); assay: IRAK1 enzymatic assay (ADP-Glo luminescence); assay type: biochemical; conditions: human recombinant His-TEV-IRAK1 (194-712), ATP 1 μM; read-out: IRAK 1 IC50
T2 construct: His-TEV-IRAK1 (194-712); His (N); TEV cleavage site (N)
T2 sequence (P51617 194-712): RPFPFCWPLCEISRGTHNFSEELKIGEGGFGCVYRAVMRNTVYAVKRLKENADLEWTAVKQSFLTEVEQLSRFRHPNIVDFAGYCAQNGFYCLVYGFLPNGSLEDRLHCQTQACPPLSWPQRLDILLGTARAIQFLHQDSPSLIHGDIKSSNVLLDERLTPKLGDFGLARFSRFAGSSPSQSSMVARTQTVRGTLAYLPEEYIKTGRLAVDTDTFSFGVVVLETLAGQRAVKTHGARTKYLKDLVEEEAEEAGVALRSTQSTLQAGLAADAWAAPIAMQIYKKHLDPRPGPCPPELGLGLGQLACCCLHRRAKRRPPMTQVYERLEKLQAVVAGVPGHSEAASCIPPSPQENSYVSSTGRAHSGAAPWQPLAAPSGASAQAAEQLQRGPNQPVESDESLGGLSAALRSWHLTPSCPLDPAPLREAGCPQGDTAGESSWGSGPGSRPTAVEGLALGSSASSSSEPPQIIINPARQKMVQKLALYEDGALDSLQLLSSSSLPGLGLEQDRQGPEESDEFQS
How it was run: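 His-TEV-IRAK1(194-712) ([…]) preincubated 15 min RT with compounds (10 μM–0.5 nM) in 50 mM Hepes pH 7.0, 10 mM MgCl2, 2 mM DTT, 0.1% BSA. Reaction started with 1 μM ATP, 2 h RT. ADP formed read by ADP-Glo luminescence.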

[1] = tested on: TLR7 induced IL-6 secretion in human mononuclear cells (PBMC's); assay: TLR7 induced IL-6 in human PBMC's; assay type: cell-based; conditions: Homo sapiens, PBMC, TLR7 specific ligand 2 uM overnight, IL-6 AlphaLISA
How it was run: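 Fresh or frozen healthy-donor PBMCs pre-treated 30 min at 37 °C with compounds (25 uM to 0.4 nM) before overnight (16-18 h) stimulation with TLR7 ligand at 2 uM. IL-6 in supernatant quantified by AlphaLISA.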

melting point | IC50 (IRAK4) | IC50 (IRAK1) | SMILES | IC50 [1]
166 to 168 °C | ≤ 100 nM | 100 to 1000 nM | CN1CCC(c2ccc3c(c2)nc(NC(=O)c2cccc(C(F)F)c2)n3CCCO)C1=O (stereo not shown) [Compound 24, 3-(difluoromethyl)-N-[1-(3-hydroxypropyl)-5-(1-methyl-2-oxopyrrolidin-3-yl)-1H-1,3-benzodiazol-2-yl]benzamide] | ≤ 100 nM
95 to 96 °C | ≤ 100 nM | 100 to 1000 nM | CN1CC(c2ccc3c(c2)nc(NC(=O)c2cccc(C(F)F)c2)n3CCCO)C(C)(C)C1=O (stereo not shown) [Compound 27, 3-Difluoromethyl-N-[1-(3-hydroxy-propyl)-5-(1,4,4-trimethyl-5-oxo-pyrrolidin-3-yl)-1H-benzoimidazol-2-yl]-benzamide] | 100 to 1000 nM
104 to 106 °C | ≤ 100 nM | ≤ 100 nM | CN1CC(c2ccc3c(c2)nc(NC(=O)c2cccc(C(F)(F)F)c2)n3CCCO)C(C)(C)C1=O (stereo not shown) [Compound 25, N-[1-(3-Hydroxy-propyl)-5-(1,4,4-trimethyl-5-oxo-pyrrolidin-3-yl)-1H-benzoimidazol-2-yl]-3-trifluoromethyl-benzamide] | 100 to 1000 nM
99 to 100 °C | ≤ 100 nM | 100 to 1000 nM | CN1C(=O)CCC1(C)c1ccc2c(c1)nc(NC(=O)c1cccc(C(F)(F)F)c1)n2CCCO (stereo not shown) [Compound 32, N-[5-(1,2-Dimethyl-5-oxo-pyrrolidin-2-yl)-1-(3-hydroxy-propyl)-1H-benzoimidazol-2-yl]-3-trifluoromethyl-benzamide] | 1000 to 10000 nM

Source: patent US9969710B2, “Heteroaryl compounds as IRAK inhibitors and uses thereof” (Merck Patent GmbH, priority 2015, dated 2018)
